pKi: −log10 of the molar value.
Target: Substance-P receptor (Homo sapiens, UniProt P25103)
Test: Binding affinity measured by displacement of tritiated radiolabeled substance P from cloned human NK1 receptor expressed in CHO cell membranes

Sequence of Substance-P receptor (P25103 whole entry): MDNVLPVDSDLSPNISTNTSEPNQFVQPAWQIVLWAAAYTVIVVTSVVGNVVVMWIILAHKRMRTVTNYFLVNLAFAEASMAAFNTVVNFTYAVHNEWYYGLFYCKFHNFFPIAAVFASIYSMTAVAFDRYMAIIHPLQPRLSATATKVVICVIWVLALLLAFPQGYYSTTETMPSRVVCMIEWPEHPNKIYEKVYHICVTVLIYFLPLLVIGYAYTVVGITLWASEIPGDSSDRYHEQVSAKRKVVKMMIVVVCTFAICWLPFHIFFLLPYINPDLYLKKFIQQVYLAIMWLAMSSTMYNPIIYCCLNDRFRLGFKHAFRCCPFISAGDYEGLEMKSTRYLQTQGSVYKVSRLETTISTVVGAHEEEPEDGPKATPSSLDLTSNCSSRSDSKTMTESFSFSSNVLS

pKi	SMILES
7.40	COc1ccccc1CN[C@H]1CCCN[C@]12CCc1ccccc12
< 6.00	COc1ccccc1CN[C@H]1CCCN[C@@]12CCc1ccccc12
